Measurements reported in US7560482B2, “Inhibitors of plasmepsins” (The Johns Hopkins University, priority 2001, dated 2009).
Like-named read-outs stand apart in the source and are kept apart here.

Tests used:
[1] = molecular target: T1, plasmepsin II from Plasmodium falciparum (Plm II) (Plasmodium falciparum, UniProt P46925); test: Plasmepsin II inhibition assay, hydrolysis of chromogenic substrate; format: biochemical; settings: for discrimination factor / Cathepsin D selectivity: Plasmepsin II versus Cathepsin D, fold; for Discrimination Factor: Fold Selectivity for Plasmepsin II over Cathepsin D: ratio of the Ki for Cathepsin D to the Ki for Plasmepsin II
T1 construct: made in house; host or cells: Escherichia coli
T1 sequence (P46925 125-453): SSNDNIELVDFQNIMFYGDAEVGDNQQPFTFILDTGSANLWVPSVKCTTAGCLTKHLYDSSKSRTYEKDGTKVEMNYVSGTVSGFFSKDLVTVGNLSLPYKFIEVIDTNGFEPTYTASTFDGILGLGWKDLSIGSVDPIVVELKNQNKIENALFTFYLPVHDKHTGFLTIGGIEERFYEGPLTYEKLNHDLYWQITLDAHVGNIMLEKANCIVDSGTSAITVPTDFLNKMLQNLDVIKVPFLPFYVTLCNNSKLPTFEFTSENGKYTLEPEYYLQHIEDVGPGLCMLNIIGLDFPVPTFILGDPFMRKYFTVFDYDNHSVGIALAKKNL
Experimental: FIG. 7A-C. Inhibition of Plasmepsin II from Plasmodium falciparum by KNI-10033, KNI-10030 and KNI-10006 at 20° C. in 10 mM sodium citrate, 100 mM NaCl, 2% DMSO, pH 4.0. The inhibition constants are 3 nM, 11 nM and 0.5 rLM respectively.
(§1) The specific activity of plasmepsin II from Plasmodium falciparum (Plm II) cloned in and purified from Escherchia coli and commercially available human Cathepsin D were measured by following the hydrolysis of the chromogenic substrate Ala-Leu-Glu-Arg-Thr-nPhe-Phe-Ser-Phe-Pro-Thr-OH (California Peptide Research Inc., Napa, Calif.). The decrease in absorbance upon hydrolysis is monitored at 300 nm. Typical Plasmepsin II preparations hydrolyze chromogenic substrate at 4-5 s^−1 at 37° C. The inhibition assays were performed at 25° C. in 10 mM sodium formate, 2% DMSO, pH 4.0. These pH conditions mimic the conditions in the food vacuole of the parasite. […] Inhibition constants (Ki) for the inhibitors are obtained at the desired temperature and solvent conditions by measuring the rate of substrate hydrolysis at increasing amounts of inhibitors. Exemplary results from three compounds (KNI-10033, KNI-10030 and KNI-10006) are shown in FIG. 7A-C, and the results obtained with all KNI compounds tested are given in Table 1.

[2] = molecular target: T2, human Cathepsin D (Homo sapiens, UniProt P07339); test: Cathepsin D inhibition assay, hydrolysis of chromogenic substrate; format: biochemical
T2 construct: purchased
T2 sequence (P07339 65-412): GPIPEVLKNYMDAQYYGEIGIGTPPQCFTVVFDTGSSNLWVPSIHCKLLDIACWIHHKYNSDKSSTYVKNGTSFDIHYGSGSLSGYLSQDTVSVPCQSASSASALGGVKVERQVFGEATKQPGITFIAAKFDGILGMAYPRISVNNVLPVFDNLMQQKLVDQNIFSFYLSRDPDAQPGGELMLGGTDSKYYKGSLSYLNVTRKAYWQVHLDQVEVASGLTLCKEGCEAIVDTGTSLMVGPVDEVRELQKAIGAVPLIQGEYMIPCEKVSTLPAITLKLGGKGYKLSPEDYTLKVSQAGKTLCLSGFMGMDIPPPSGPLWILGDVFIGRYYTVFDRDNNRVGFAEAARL
Experimental: as §1

[3] = 25° C., 10 mM sodium formate, 2% DMSO, pH 4.0, fit to competitive inhibition, read-out: Ki Plm II
[4] = Table 2, read-out: Ki Plasmepsin II
[5] = 25° C., 10 mM sodium formate, 2% DMSO, pH 4.0, fit to competitive inhibition, read-out: Ki CatD
[6] = Table 2, read-out: Ki Cathepsin D
[7] = 20° C., 10 mM sodium citrate, 100 mM NaCl, 2% DMSO, pH 4.0, read-out: inhibition constant, Plasmepsin II (FIG. 7)

| SMILES | Ki [1, 3] [nM] | Ki [2, 5] [nM] | other results |
| --- | --- | --- | --- |
| CSCC(NC(=O)COc1cccc2cnccc12)C(=O)NC(Cc1ccccc1)C(O)C(=O)N1CSC(C)(C)C1C(=O)NC(C)(C)C (stereo not drawn) [KNI-227] | 36 ± 10 | 1770 ± 230 | inhibition constants against Plasmepsin II, in words [1]: nanomolar and subnanomolar range; discrimination factor / Cathepsin D selectivity [1]: 50; Ki [1, 4]: 36 nM; Discrimination Factor: Fold Selectivity for Plasmepsin II over Cathepsin D [1]: ~49; Ki ([1]; read-out: Ki against Plasmepsin II): 30 nM; Ki [2, 6]: 1770 nM |
| CSC[C@H](NC(=O)COc1cccc2cnccc12)C(=O)N[C@@H](Cc1ccccc1)[C@H](O)C(=O)N1CSC[C@H]1C(=O)NC(C)(C)C [KNI-272] | 1000 ± 200 | 2580 ± 300 |  |
| CC(C)(C)NC(=O)[C@@H]1CSCN1C(=O)[C@@H](O)[C@H](Cc1ccccc1)NC(=O)CCC(=O)O [KNI-357] | 96900 ± 19100 | 8120 ± 1500 |  |
| CC(C)(C)NC(=O)[C@@H]1CSCN1C(=O)[C@@H](O)[C@H](Cc1ccccc1)NC(=O)CC(C)(C)C(=O)O [KNI-391] | 12700 ± 1500 | 1350 ± 80 | Ki ([2]; read-out: Ki for Cathepsin D): 1350 nM |
| CC(C)(C)NC(=O)[C@H]1N(C(=O)[C@@H](O)[C@H](Cc2ccccc2)NC(=O)CC(C)(C)C(=O)O)CSC1(C)C [KNI-413] | 1390 ± 500 | 7260 ± 1400 |  |
| CC(C)[C@H](NC(=O)COc1cccc2cnccc12)C(=O)N[C@@H](Cc1ccccc1)[C@H](O)C(=O)N1CSC(C)(C)[C@H]1C(=O)NC(C)(C)C [KNI-492] | 340 ± 20 | 3700 ± 350 |  |
| CSC[C@H](NC(=O)COc1cccc2cnccc12)C(=O)N[C@@H](Cc1ccccc1)[C@@H](O)C(=O)N1CSC[C@H]1C(=O)NC(C)(C)C [KNI-529] | 8090 ± 2600 | 8820 ± 2800 |  |
| CC(C(=O)O)C(C)C(=O)N[C@@H](Cc1ccccc1)[C@H](O)C(=O)N1CSC[C@H]1C(=O)NC(C)(C)C (stereo partly drawn) [KNI-547] | 30700 ± 8100 | 18200 ± 3300 |  |
| Cc1c(O)cccc1C(=O)N[C@@H](Cc1ccccc1)[C@H](O)C(=O)N1CSC(C)(C)[C@H]1C(=O)NC(C)(C)C [KNI-577] | 590 ± 70 | 3440 ± 700 |  |
| Cc1cccc(C)c1OCC(=O)NC(Cc1ccccc1)C(O)C(=O)N1CSC(C)(C)C1C(=O)NC(C)(C)C (stereo not drawn) [KNI-727] | 70 ± 40 | 1600 ± 300 | inhibition constants against Plasmepsin II, in words [1]: nanomolar and subnanomolar range; discrimination factor / Cathepsin D selectivity [1]: 22; Discrimination Factor: Fold Selectivity for Plasmepsin II over Cathepsin D [1]: ~23; Ki [2, 6]: 1600 nM |
| CC[C@H](C)[C@H](NC(=O)COc1cccc2cnccc12)C(=O)N[C@@H](Cc1ccccc1)[C@H](O)C(=O)N1CSC(C)(C)[C@H]1C(=O)NC(C)(C)C [KNI-10001] | 359 ± 60 | 1610 ± 330 |  |
| CC(C)[C@H](NC(=O)c1cc(=O)c2ccccc2o1)C(=O)N[C@@H](Cc1ccccc1)[C@H](O)C(=O)N1CSC(C)(C)[C@H]1C(=O)NC(C)(C)C [KNI-10002] | 244 ± 20 | 112 ± 20 |  |
| CC(C)[C@H](NC(=O)c1ccccn1)C(=O)N[C@@H](Cc1ccccc1)[C@H](O)C(=O)N1CSC(C)(C)[C@H]1C(=O)NC(C)(C)C [KNI-10003] | 1150 ± 190 | 970 ± 100 |  |
| CC(C)[C@H](NC(=O)c1ccc2ccccc2n1)C(=O)N[C@@H](Cc1ccccc1)[C@H](O)C(=O)N1CSC(C)(C)[C@H]1C(=O)NC(C)(C)C [KNI-10004] | 522 ± 50 | 290 ± 90 |  |
| CC(C)[C@H](NC(=O)COc1cccc(Nc2ccccc2)c1)C(=O)N[C@@H](Cc1ccccc1)[C@H](O)C(=O)N1CSC(C)(C)[C@H]1C(=O)NC(C)(C)C [KNI-10005] | 250 ± 190 | 507 ± 100 |  |
| Cc1cccc(C)c1OCC(=O)N[C@@H](Cc1ccccc1)[C@H](O)C(=O)N1CSC(C)(C)[C@H]1C(=O)N[C@H]1c2ccccc2C[C@H]1O [KNI-10006] |  | 2 | inhibition constants against Plasmepsin II, in words [1]: nanomolar and subnanomolar range; discrimination factor / Cathepsin D selectivity [1]: 4; Ki [1, 4]: 0.5 nM; Discrimination Factor: Fold Selectivity for Plasmepsin II over Cathepsin D [1]: 4; Ki ([1]; read-out: Ki (Plasmepsin II)): 0.5 nM; Ki [2, 6]: 2 nM |
| Cc1cccc(C)c1OCC(=O)N[C@@H](Cc1ccccc1)[C@H](O)C(=O)N1CSC(C)(C)[C@H]1C(=O)N[C@@H]1c2ccccc2C[C@@H]1O [KNI-10007] | 71 ± 10 | 806 ± 600 |  |
| COc1ccc(CNC(=O)[C@H]2N(C(=O)[C@@H](O)[C@H](Cc3ccccc3)NC(=O)COc3c(C)cccc3C)CSC2(C)C)cc1 [KNI-10008] | 169 ± 20 | 461 ± 140 |  |
| CC(C)[C@H](NC(=O)c1cc2ccccc2o1)C(=O)N[C@@H](Cc1ccccc1)[C@H](O)C(=O)N1CSC(C)(C)[C@H]1C(=O)NC(C)(C)C [KNI-10009] | 2180 ± 250 | 515 ± 47 |  |
| COc1ccc(CCNC(=O)[C@H]2N(C(=O)[C@@H](O)[C@H](Cc3ccccc3)NC(=O)COc3c(C)cccc3C)CSC2(C)C)cc1 [KNI-10025] | 75 ± 10 | 655 ± 83 |  |
| Cc1cccc(C)c1OCC(=O)N[C@@H](Cc1ccccc1)[C@H](O)C(=O)N1CSC(C)(C)[C@H]1C(=O)N[C@H]1CCc2ccccc21 [KNI-10026] | 15 ± 5 | 105 ± 18 | inhibition constants against Plasmepsin II, in words [1]: nanomolar and subnanomolar range; Ki [1, 4]: 15 nM; Discrimination Factor: Fold Selectivity for Plasmepsin II over Cathepsin D [1]: 7; Ki [2, 6]: 105 nM |
| CC(C)[C@H](NC(=O)c1cccc2ccccc12)C(=O)N[C@@H](Cc1ccccc1)[C@H](O)C(=O)N1CSC(C)(C)[C@H]1C(=O)NC(C)(C)C [KNI-10027] | 1070 ± 90 | 1030 ± 200 |  |
| CC(C)[C@H](NC(=O)Cc1cccc2ccccc12)C(=O)N[C@@H](Cc1ccccc1)[C@H](O)C(=O)N1CSC(C)(C)[C@H]1C(=O)NC(C)(C)C [KNI-10028] | 1630 ± 157 | 690 ± 70 |  |
| CC(C)[C@H](NC(=O)Cc1ccc2ccccc2c1)C(=O)N[C@@H](Cc1ccccc1)[C@H](O)C(=O)N1CSC(C)(C)[C@H]1C(=O)NC(C)(C)C [KNI-10029] | 860 ± 90 | 282 ± 39 |  |
| Cc1cccc(C)c1OCC(=O)N[C@@H](Cc1ccccc1)[C@H](O)C(=O)N1CSC(C)(C)[C@H]1C(=O)N[C@H](C)c1ccccc1 [KNI-10030] |  | 111 ± 15 | Ki [1, 7]: 11 nM; Ki [1, 4]: 11 nM; Discrimination Factor: Fold Selectivity for Plasmepsin II over Cathepsin D [1]: ~10; Ki [2, 6]: 111 nM |
| Cc1cccc(C)c1OCC(=O)N[C@@H](Cc1ccccc1)[C@H](O)C(=O)N1CSC(C)(C)[C@H]1C(=O)Nc1cccc2ccccc12 [KNI-10031] | 83 ± 7 | 130 ± 19 |  |
| CSCC[C@H](NC(=O)COc1cccc2cnccc12)C(=O)N[C@@H](Cc1ccccc1)[C@H](O)C(=O)N1CSC(C)(C)[C@H]1C(=O)NC(C)(C)C [KNI-10032] | 535 ± 55 | 2620 ± 390 |  |
| CSC[C@H](NC(=O)COc1cccc2cnccc12)C(=O)N[C@@H](Cc1ccccc1)[C@H](O)C(=O)N1CSC(C)(C)[C@H]1C(=O)N[C@H]1Cc2ccccc2[C@H]1O [KNI-10033] |  | 40 ± 10 | inhibition constants against Plasmepsin II, in words [1]: nanomolar and subnanomolar range; Ki [1, 7]: 3 nM; Ki [1, 4]: 3 nM; Discrimination Factor: Fold Selectivity for Plasmepsin II over Cathepsin D [1]: ~13; Ki ([2]; read-out: Ki for Cathepsin D): 40 nM |
| CSC[C@H](NC(=O)COc1c(C)cccc1C)C(=O)N[C@@H](Cc1ccccc1)[C@H](O)C(=O)N1CSC(C)(C)[C@H]1C(=O)NC(C)(C)C [KNI-10041] | 496 ± 69 | 1670 ± 256 |  |
| CCC[C@H](NC(=O)COc1cccc2cnccc12)C(=O)N[C@@H](Cc1ccccc1)[C@H](O)C(=O)N1CSC(C)(C)[C@H]1C(=O)NC(C)(C)C [KNI-10042] | 222 ± 17 | 2260 ± 166 |  |
